Measurements reported in patent publication US8512789B2, “High-potency sweetener composition with dietary fiber and compositions sweetened therewith” (The Coca-Cola Company, priority 2005, dated 2013).

Columns and labels:
[1] = Sensory evaluation of sweetness linger by a panel of experts; type: in vivo; set-up: key: 0=no sweetness linger; 1=very slight sweetness linger; 2 slight sweetness linger; 3 moderate sweetness linger; 4=moderately high sweetness linger; 5 high sweetness linger
Method: In a particular embodiment, a panel of assessors is used to measure the reduction of sweetness linger. Briefly described, a panel of assessors (generally 8 to 12 individuals) is trained to evaluate sweetness perception and measure sweetness at several time points from when the sample is initially taken into the mouth until 3 minutes after it has been expectorated. […] A decrease in score for a time point measured after the sample has cleared the mouth indicates there has been a reduction in sweetness perception.
The panel of assessors may be trained using procedures well known to those of ordinary skill in the art. In a particular embodiment, the panel of assessors may be trained using the Spectrum™ Descriptive Analysis Method (Meilgaard et al, Sensory Evaluation Techniques, 3rd edition, Chapter 11). Desirably, the focus of training should be the recognition of and the measure of the basic tastes; specifically, sweet. […]
Sensory evaluation of the samples prepared in Example Set C was carried out under the following protocol, similar to that described hereinabove. […] Immediately upon sensing maximal sweetness, the sample was expectorated, the mouth was rinsed with water and the rate of sweetness decay (“Sweetness Linger”) was measured, where attention was focused on the sweetness 3-4 min after the water rinse. […]

[2] = Rate of dissolution of rebaudioside A polymorph and amorphous forms in H2O at 25° C.; type: physicochemical

Rate of dissolution in H2O at 25° C. [2]	Rate of dissolution in H2O at 25° C. (in words) [2]	Substance	Sweetness Linger rating ([1]; Example Set G: citric acid/potassium citrate composition equivalent to diet lemon-lime beverage, 400 ppm REBA base (sugar control 8 g/100 ml), scale 0-5, sweetness 3-4 min after water rinse)	Sweetness Linger rating ([1]; Example Set H: carbon-treated water with phosphoric acid (75%), pH 2.4-2.5, REBA base (sugar control 10 g/100 ml), scale 0-5)
		rebaudioside A	5	5
(<0.2%/ %/60 minutes	Very low	rebaudioside A [Form 1]		
	Intermediate	rebaudioside A [Form 2]		
(>30%/ %/5 minutes	High	rebaudioside A [Form 3]		
(>35%/ %/5 minutes	High	rebaudioside A [Form 4]		
